From publication PMC6120666 (The EMBO Journal, 2018)

Columns and labels:
Assay in all cases: Drug affinity chromatography with c-ponatinib and LC-MS/MS (ponatinib interactome)
Format in all cases: binding
[1] = molecular target: T1, proteins of U2OS cell lysate (Homo sapiens, UniProt O43318); details: MAP3K7;DKFZp586F0420, Mitogen-activated protein kinase kinase kinase 7
T1 construct: Proteins enriched by c-ponatinib from U2OS cell lysate; endogenous in cells; host or cells: U2OS cell lysate
How it was run: (§1)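 U2OS cell lysate in NP-40 lysis buffer (2 mg protein per pulldown) was incubated with amine-derivatized NHS beads for 2 h at 4 °C. Bound proteins were washed, eluted with 100 mM formic acid, reduced, alkylated and trypsin-digested, then identified by nano-UPLC–MS/MS on Orbitrap instruments with a 60 min gradient.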

[2] = molecular target: T2, proteins of U2OS cell lysate (Homo sapiens, UniProt O43707); details: ACTN4, Alpha-actinin-4
T2 construct: Proteins enriched by c-ponatinib from U2OS cell lysate; endogenous in cells; host or cells: U2OS cell lysate
How it was run: as §1

[3] = molecular target: T3, proteins of U2OS cell lysate (Homo sapiens, UniProt O60664); details: PLIN3, Perilipin-3
T3 construct: Proteins enriched by c-ponatinib from U2OS cell lysate; endogenous in cells; host or cells: U2OS cell lysate
T3 sequence (O60664 whole entry): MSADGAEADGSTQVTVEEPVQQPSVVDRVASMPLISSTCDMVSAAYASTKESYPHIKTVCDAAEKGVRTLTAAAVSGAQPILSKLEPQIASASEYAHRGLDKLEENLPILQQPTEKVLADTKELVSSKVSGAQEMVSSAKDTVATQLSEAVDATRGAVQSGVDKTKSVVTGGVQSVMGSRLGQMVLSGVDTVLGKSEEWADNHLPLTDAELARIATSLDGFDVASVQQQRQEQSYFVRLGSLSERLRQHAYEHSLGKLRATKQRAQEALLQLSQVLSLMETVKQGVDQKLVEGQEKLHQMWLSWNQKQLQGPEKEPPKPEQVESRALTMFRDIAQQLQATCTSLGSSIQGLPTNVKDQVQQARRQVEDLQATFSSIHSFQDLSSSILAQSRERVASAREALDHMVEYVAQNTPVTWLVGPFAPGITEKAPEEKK
How it was run: as §1

[4] = molecular target: T4, proteins of U2OS cell lysate (Homo sapiens, UniProt O94906); details: PRPF6, Pre-mRNA-processing factor 6
T4 construct: Proteins enriched by c-ponatinib from U2OS cell lysate; endogenous in cells; host or cells: U2OS cell lysate
How it was run: as §1

[5] = molecular target: T5, proteins of U2OS cell lysate (Homo sapiens, UniProt P08195); details: SLC3A2, 4F2 cell-surface antigen heavy chain
T5 construct: Proteins enriched by c-ponatinib from U2OS cell lysate; endogenous in cells; host or cells: U2OS cell lysate
How it was run: as §1

[6] = molecular target: T6, proteins of U2OS cell lysate (Homo sapiens, UniProt P35580); details: MYH10, Myosin-10
T6 construct: Proteins enriched by c-ponatinib from U2OS cell lysate; endogenous in cells; host or cells: U2OS cell lysate
How it was run: as §1

[7] = molecular target: T7, proteins of U2OS cell lysate (Homo sapiens, UniProt P46060); details: RANGAP1, Ran GTPase-activating protein 1
T7 construct: Proteins enriched by c-ponatinib from U2OS cell lysate; endogenous in cells; host or cells: U2OS cell lysate
How it was run: as §1

[8] = molecular target: T8, proteins of U2OS cell lysate (Homo sapiens, UniProt P49792); details: RANBP2, E3 SUMO-protein ligase RanBP2
T8 construct: Proteins enriched by c-ponatinib from U2OS cell lysate; endogenous in cells; host or cells: U2OS cell lysate
T8 sequence (P49792 whole entry): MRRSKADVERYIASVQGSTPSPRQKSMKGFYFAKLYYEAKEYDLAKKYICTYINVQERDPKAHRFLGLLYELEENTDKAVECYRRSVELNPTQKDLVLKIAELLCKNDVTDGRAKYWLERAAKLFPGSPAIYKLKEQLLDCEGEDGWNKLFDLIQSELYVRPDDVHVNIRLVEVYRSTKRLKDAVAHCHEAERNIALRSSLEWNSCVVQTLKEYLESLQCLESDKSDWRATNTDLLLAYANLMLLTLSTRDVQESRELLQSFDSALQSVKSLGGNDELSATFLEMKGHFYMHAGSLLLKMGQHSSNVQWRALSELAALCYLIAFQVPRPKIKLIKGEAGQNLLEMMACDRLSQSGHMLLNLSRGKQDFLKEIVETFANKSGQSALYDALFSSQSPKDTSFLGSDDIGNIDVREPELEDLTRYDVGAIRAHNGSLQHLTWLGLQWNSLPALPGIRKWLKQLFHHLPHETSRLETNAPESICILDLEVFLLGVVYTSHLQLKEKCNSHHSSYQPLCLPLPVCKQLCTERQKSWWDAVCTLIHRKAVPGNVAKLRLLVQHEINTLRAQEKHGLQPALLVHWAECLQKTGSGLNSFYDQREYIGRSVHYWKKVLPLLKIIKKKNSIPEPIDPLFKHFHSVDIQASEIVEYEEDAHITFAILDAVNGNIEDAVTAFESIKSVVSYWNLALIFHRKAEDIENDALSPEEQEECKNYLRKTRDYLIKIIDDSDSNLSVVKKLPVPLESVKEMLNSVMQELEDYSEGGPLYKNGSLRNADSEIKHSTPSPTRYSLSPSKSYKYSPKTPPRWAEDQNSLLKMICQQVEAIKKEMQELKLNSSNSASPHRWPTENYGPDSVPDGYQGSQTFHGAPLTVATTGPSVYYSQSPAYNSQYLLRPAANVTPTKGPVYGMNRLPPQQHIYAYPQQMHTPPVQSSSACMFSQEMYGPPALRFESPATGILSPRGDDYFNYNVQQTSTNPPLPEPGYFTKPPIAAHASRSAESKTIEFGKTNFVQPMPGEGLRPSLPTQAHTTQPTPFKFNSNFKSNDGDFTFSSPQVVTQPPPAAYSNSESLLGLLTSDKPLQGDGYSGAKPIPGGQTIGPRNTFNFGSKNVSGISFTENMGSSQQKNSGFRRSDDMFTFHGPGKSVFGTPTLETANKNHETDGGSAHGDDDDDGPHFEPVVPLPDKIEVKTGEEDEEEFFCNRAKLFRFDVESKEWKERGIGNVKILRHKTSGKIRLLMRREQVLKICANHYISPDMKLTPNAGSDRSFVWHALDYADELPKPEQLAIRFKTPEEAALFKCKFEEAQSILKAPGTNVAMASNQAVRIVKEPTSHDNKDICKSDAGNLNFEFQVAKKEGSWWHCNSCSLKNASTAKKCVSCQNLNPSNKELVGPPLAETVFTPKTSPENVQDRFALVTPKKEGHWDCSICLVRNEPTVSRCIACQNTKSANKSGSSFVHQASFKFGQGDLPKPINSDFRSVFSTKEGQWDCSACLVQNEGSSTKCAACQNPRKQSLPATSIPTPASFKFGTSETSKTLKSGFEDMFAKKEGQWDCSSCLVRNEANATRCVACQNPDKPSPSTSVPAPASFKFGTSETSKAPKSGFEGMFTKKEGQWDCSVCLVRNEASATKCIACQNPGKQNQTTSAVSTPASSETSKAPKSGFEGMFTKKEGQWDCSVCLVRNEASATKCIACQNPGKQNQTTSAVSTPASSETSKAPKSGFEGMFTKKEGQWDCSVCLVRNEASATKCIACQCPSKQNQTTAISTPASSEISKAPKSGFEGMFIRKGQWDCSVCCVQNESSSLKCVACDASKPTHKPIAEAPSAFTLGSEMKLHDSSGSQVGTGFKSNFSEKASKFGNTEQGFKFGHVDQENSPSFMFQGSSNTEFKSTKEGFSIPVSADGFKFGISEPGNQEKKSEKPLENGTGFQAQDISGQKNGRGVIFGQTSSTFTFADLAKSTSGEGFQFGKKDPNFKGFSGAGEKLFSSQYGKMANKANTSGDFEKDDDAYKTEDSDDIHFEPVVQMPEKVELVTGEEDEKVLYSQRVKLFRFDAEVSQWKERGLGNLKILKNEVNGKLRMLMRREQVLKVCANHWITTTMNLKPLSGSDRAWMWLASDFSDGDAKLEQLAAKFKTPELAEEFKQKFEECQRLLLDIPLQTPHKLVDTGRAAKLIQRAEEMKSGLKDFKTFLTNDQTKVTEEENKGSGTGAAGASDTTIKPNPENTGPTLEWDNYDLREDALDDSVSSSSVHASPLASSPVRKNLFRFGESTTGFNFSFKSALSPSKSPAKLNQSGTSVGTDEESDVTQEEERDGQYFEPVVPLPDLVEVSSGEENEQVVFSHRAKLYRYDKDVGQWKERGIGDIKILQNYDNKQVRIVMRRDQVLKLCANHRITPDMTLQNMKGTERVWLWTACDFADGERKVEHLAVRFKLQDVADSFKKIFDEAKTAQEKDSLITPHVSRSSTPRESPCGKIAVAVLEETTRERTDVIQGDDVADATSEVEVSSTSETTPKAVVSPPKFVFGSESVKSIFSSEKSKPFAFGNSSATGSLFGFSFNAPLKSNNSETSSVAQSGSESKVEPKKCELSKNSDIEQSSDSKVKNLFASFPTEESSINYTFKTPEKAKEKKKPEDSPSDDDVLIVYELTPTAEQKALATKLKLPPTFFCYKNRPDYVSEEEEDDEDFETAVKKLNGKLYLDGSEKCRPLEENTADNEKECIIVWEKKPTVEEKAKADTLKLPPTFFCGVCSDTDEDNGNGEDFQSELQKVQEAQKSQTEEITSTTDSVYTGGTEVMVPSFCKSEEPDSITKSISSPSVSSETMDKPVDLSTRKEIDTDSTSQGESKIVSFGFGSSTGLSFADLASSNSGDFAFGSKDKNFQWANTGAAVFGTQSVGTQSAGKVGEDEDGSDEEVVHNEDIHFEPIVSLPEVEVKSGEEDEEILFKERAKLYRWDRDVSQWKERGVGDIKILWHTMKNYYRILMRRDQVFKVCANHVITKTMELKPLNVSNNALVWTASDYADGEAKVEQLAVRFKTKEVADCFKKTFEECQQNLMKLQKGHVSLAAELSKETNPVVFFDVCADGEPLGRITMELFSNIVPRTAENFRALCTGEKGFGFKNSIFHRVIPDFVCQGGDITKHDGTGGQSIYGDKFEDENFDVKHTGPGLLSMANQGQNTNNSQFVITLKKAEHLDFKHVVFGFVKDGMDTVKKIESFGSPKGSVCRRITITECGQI
How it was run: as §1

[9] = molecular target: T9, proteins of U2OS cell lysate (Homo sapiens, UniProt P60953); details: CDC42, Cell division control protein 42 homolog
T9 construct: Proteins enriched by c-ponatinib from U2OS cell lysate; endogenous in cells; host or cells: U2OS cell lysate
T9 sequence (P60953 whole entry): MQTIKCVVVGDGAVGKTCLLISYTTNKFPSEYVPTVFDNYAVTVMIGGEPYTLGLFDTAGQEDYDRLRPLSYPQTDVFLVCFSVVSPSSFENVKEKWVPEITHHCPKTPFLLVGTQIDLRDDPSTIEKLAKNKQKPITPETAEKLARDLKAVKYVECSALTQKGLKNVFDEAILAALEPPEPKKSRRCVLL
How it was run: as §1

[10] = molecular target: T10, proteins of U2OS cell lysate (Homo sapiens, UniProt P63104); details: YWHAZ, 14-3-3 protein zeta/delta
T10 construct: Proteins enriched by c-ponatinib from U2OS cell lysate; endogenous in cells; host or cells: U2OS cell lysate
T10 sequence (P63104 whole entry): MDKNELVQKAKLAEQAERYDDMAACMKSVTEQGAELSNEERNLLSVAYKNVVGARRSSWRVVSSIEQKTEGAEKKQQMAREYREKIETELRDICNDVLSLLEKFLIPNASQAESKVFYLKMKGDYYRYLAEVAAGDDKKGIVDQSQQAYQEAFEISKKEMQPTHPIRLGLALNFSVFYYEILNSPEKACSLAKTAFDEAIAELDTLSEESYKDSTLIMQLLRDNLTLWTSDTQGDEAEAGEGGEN
How it was run: as §1

[11] = molecular target: T11, proteins of U2OS cell lysate (Homo sapiens, UniProt P68363); details: TUBA1B;TUBA1A, Tubulin alpha-1B chain
T11 construct: Proteins enriched by c-ponatinib from U2OS cell lysate; endogenous in cells; host or cells: U2OS cell lysate
How it was run: as §1

[12] = molecular target: T12, proteins of U2OS cell lysate (Homo sapiens, UniProt Q09666); details: AHNAK, Neuroblast differentiation-associated protein AHNAK
T12 construct: Proteins enriched by c-ponatinib from U2OS cell lysate; endogenous in cells; host or cells: U2OS cell lysate
How it was run: as §1

[13] = molecular target: T13, proteins of U2OS cell lysate (Homo sapiens, UniProt Q14203); details: DCTN1, Dynactin subunit 1
T13 construct: Proteins enriched by c-ponatinib from U2OS cell lysate; endogenous in cells; host or cells: U2OS cell lysate
How it was run: as §1

[14] = molecular target: T14, proteins of U2OS cell lysate (Homo sapiens, UniProt Q15365); details: PCBP1, Poly(rC)-binding protein 1
T14 construct: Proteins enriched by c-ponatinib from U2OS cell lysate; endogenous in cells; host or cells: U2OS cell lysate
How it was run: as §1

[15] = molecular target: T15, proteins of U2OS cell lysate (Homo sapiens, UniProt Q16531); details: DDB1, DNA damage-binding protein 1
T15 construct: Proteins enriched by c-ponatinib from U2OS cell lysate; endogenous in cells; host or cells: U2OS cell lysate
How it was run: as §1

[16] = molecular target: T16, proteins of U2OS cell lysate (Homo sapiens, UniProt Q9UMS4); details: PRPF19, Pre-mRNA-processing factor 19
T16 construct: Proteins enriched by c-ponatinib from U2OS cell lysate; endogenous in cells; host or cells: U2OS cell lysate
How it was run: as §1

[17] = molecular target: T17, proteins of U2OS cell lysate (Homo sapiens, UniProt Q9Y5L0); details: TNPO3, Transportin-3
T17 construct: Proteins enriched by c-ponatinib from U2OS cell lysate; endogenous in cells; host or cells: U2OS cell lysate
How it was run: as §1

[18] = molecular target: T18, proteins of U2OS cell lysate (Homo sapiens, UniProt Q9UHB6); details: captured protein LIMA1, Rank 120
T18 construct: Proteins enriched by c-ponatinib from U2OS cell lysate; endogenous in cells; host or cells: U2OS cell lysate
How it was run: as §1

[19] = molecular target: T19, proteins of U2OS cell lysate (Homo sapiens, UniProt Q9UNM6); details: captured protein PSMD13, Rank 204
T19 construct: Proteins enriched by c-ponatinib from U2OS cell lysate; endogenous in cells; host or cells: U2OS cell lysate
T19 sequence (Q9UNM6 whole entry): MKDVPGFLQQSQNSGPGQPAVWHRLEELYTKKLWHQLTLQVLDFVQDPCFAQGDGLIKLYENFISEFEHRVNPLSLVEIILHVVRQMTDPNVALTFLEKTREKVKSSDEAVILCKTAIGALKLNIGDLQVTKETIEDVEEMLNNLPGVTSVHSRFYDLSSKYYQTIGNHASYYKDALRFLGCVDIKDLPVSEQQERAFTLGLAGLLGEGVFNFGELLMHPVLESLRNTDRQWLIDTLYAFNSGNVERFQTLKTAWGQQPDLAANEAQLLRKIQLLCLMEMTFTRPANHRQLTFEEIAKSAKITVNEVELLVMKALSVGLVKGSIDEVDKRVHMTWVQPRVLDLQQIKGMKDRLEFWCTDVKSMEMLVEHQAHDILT
How it was run: as §1

T1 sequence (O43318 whole entry): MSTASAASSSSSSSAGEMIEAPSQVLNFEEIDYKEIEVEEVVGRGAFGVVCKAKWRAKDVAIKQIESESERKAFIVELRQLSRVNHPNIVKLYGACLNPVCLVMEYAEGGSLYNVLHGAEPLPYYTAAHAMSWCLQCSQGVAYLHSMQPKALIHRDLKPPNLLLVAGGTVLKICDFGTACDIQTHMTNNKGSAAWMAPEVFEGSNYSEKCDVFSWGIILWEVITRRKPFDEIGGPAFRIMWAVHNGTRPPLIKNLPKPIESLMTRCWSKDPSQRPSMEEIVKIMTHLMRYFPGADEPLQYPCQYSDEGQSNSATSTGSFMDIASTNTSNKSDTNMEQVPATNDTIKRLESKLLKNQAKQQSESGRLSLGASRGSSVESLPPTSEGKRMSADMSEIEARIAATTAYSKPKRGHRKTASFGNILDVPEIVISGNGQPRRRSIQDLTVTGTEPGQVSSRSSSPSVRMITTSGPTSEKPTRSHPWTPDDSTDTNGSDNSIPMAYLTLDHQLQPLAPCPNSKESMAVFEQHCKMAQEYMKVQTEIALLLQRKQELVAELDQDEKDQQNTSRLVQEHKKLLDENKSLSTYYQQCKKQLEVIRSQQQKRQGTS

SMILES | Average LFQ PON_WT [1] | Average LFQ PON_WT [2] | Average LFQ PON_WT [3] | Average LFQ PON_WT [4] | Average LFQ PON_WT [5] | Average LFQ PON_WT [6] | Average LFQ PON_WT [7] | Average LFQ PON_WT [8] | Average LFQ PON_WT [9] | Average LFQ PON_WT [10] | Average LFQ PON_WT [11] | Average LFQ PON_WT [12] | Average LFQ PON_WT [13] | Average LFQ PON_WT [14] | Average LFQ PON_WT [15] | Average LFQ PON_WT [16] | Average LFQ PON_WT [17] | Average LFQ intensity [18] | Average LFQ intensity [19]
Cc1ccc(C(=O)Nc2ccc(CN3CCN(C)CC3)c(C(F)(F)F)c2)cc1C#Cc1cnc2cccnn12 [PON] | 25.3656 | 19.9578 | 20.1604 | 19.4979 | 18.7801 | 20.7261 | 21.315 | 18.8692 | 20.531 | 24.9214 | 27.3228 | 26.25 | 21.0359 | 21.283 | 20.7257 | 21.24 | 20.3086 |  | 
Cc1ccc(C(=O)Nc2ccc(CN3CCN(CCCN)CC3)c(C(F)(F)F)c2)cc1C#Cc1cnc2cccnn12 [c-ponatinib, reference compound] |  |  |  |  |  |  |  |  |  |  |  |  |  |  |  |  |  | 23.0824 | 21.7826
